The target in this assay is T1, oestrogen receptor (ER) (Homo sapiens, UniProt P03372).
T1 construct: These MVLN cells express, along with the functional oestrogen receptor (ER), a reporter construct; endogenous in cells; host or cells: MVLN cells (MCF7 derivative carrying a luciferase reporter construct)
T1 sequence (P03372 1-595): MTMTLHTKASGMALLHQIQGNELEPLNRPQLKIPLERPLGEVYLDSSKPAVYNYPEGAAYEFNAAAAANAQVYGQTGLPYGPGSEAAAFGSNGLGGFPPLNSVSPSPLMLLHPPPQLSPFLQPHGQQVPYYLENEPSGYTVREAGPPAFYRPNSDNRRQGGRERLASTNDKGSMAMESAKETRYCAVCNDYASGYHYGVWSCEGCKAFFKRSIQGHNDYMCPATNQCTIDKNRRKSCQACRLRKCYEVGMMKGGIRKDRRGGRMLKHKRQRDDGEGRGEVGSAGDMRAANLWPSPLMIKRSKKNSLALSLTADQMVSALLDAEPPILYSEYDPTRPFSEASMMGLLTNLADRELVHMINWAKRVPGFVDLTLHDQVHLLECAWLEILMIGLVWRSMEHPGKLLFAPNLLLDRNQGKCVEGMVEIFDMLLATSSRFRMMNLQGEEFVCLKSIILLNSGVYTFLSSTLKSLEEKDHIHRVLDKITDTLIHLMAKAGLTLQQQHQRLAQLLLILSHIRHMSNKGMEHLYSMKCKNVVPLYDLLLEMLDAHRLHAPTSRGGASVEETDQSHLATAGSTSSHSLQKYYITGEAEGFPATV
Description: Anti-oestrogenic action in MVLN cells (inhibition of estradiol-induced luciferase). The note with it: inhibition of estradiol-induced luciferase signal, value of Ex. 44 is a mean value, read-out: Antioestrogenic action in vitro: MVLN transactivation antagonism IC50. The assay is classed as cell-based. The text has this: The anti-oestrogenic action of the claimed pharmacological compounds was investigated in so-called MVLN cells in vitro. MVLN cells are derivatives of the hormone-responsive MCF7 breast cancer cells known by a person skilled in the art. These MVLN cells express, along with the functional oestrogen receptor (ER), a reporter construct, which under ER-activation expresses luciferase. Determination of the activity of the induced luciferase permits a direct conclusion on the oestrogen properties of substances. To investigate the anti-oestrogenic properties of the pharmacological compounds, they were investigated in the presence of oestrogen for their potential for inhibiting the luciferase signal induced by estradiol. The claimed pharmacological test substances were investigated in MVLN cells for their anti-oestrogenic potential, as described (see Table 2).

SMILES strings stand for the structures. pIC50: −log10 of the molar value.

Usually pIC50 stands for −log10 of the IC50, conventionally taken in molar units. As to `CC(C)(O)CN(CCCCCCC1=C(c2ccc(F)c(F)c2)CCCc2cc(O)ccc21)CCC[S+]([O-])CCC(F)(F)F` (stereo not shown) [Example 26, 8-(3,4-Difluorophenyl)-9-{6-[(2-hydroxy-2-methylpropyl){3-[(3,3,3-trifluoropropyl)sulphinyl]propyl}amino]hexyl}-6,7-dihydro-5H-benzo[7]annulen-3-ol], the pIC50 was 7.55. Under `CC(C)(O)CN(CCCCCCC1=C(c2ccc(F)c(F)c2)CCCc2cc(O)ccc21)CCC[S+]([O-])CCCC(F)(F)C(F)(F)F` (stereo not shown) [Example 28, 8-(3,4-Difluorophenyl)-9-{6-[(2-hydroxy-2-methylpropyl){3-[(4,4,5,5,5-pentafluoropentyl)sulphinyl]propyl}amino]hexyl}-6,7-dihydro-5H-benzo[7]annulen-3-ol] stands 8.05; under `CC(C)(O)CN(CCCCCCC1=C(c2ccc(F)c(F)c2)CCCc2cc(O)ccc21)CCCS(=O)(=O)CCCC(F)(F)C(F)(F)F` [Example 29, 8-(3,4-Difluorophenyl)-9-{6-[(2-hydroxy-2-methylpropyl){3-[(4,4,5,5,5-pentafluoropentyl)sulphonyl]propyl}amino]hexyl}-6,7-dihydro-5H-benzo[7]annulen-3-ol], 8.00; under `CCN(CCCCCCC1=C(c2ccc(F)c(F)c2)CCCc2cc(O)ccc21)CCCS(=O)(=O)CCC(F)(F)F` [Example 30, 8-(3,4-Difluorophenyl)-9-[6-(ethyl{3-[(3,3,3-trifluoropropyl)sulphonyl]propyl}amino)hexyl]-6,7-dihydro-5H-benzo[7]annulen-3-ol], 7.06. Under `COCCN(CCCCCCC1=C(c2ccc(F)c(F)c2)CCCc2cc(O)ccc21)CCCS(=O)(=O)CCCC(F)(F)C(F)(F)F` [Example 31, 8-(3,4-Difluorophenyl)-9-{6-[(2-methoxyethyl){3-[(4,4,5,5,5-pentafluoropentyl)sulphonyl]propyl}amino]hexyl}-6,7-dihydro-5H-benzo[7]annulen-3-ol] stands 7.80. Under `COCCCN(CCCCCCC1=C(c2ccc(F)c(F)c2)CCCc2cc(O)ccc21)CCCS(=O)(=O)CCCC(F)(F)C(F)(F)F` [Example 32, 8-(3,4-Difluorophenyl)-9-{6-[(3-methoxypropyl){3-[(4,4,5,5,5-pentafluoropentyl)sulphonyl]propyl}amino]hexyl}-6,7-dihydro-5H-benzo[7]annulen-3-ol] stands 7.48; under `CN(CCCCCCC1=C(c2ccc(F)cc2)CCCc2c1ccc(O)c2F)CCCS(=O)(=O)CCCC(F)(F)C(F)(F)F` [Example 33, 4-Fluoro-8-(4-fluorophenyl)-9-[6-(methyl{3-[(4,4,5,5,5-pentafluoropentyl)sulphonyl]propyl}amino)hexyl]-6,7-dihydro-5H-benzo[7]annulen-3-ol], 7.96. `CN(CCCCCCC1=C(c2ccc(F)cc2)CCCc2c1ccc(O)c2F)CCCS(=O)(=O)CCC(F)(F)C(F)(F)F` [Example 34, 4-Fluoro-8-(4-fluorophenyl)-9-[6-(methyl{3-[(3,3,4,4,4-pentafluorobutyl)sulphonyl]propyl}amino)hexyl]-6,7-dihydro-5H-benzo[7]annulen-3-ol]: the pIC50 was 7.57. With `CN(CCCCCCC1=C(c2ccc(F)cc2)CCCc2c1ccc(O)c2F)CCCC[S+]([O-])CCCC(F)(F)C(F)(F)F` (stereo not shown) [Example 35, 4-Fluoro-8-(4-fluorophenyl)-9-[6-(methyl{4-[(4,4,5,5,5-pentafluoropentyl)sulphinyl]butyl}amino)hexyl]-6,7-dihydro-5H-benzo[7]annulen-3-ol], the pIC50 was 8.00. Turning to `CN(CCCCCCC1=C(c2ccc(F)cc2)CCCc2c1ccc(O)c2F)CCC[S+]([O-])CCC(F)(F)F` (stereo not shown) [Example 36, 4-Fluoro-8-(4-fluorophenyl)-9-[6-(methyl{3-[(3,3,3-trifluoropropyl)sulphinyl]propyl}amino)hexyl]-6,7-dihydro-5H-benzo[7]annulen-3-ol], the negative-log IC50 (pIC50) is 7.46. Under `CN(CCCCCCC1=C(c2ccc(F)cc2)CCCc2c1ccc(O)c2F)CCCS(=O)(=O)CCC(F)(F)F` [Example 37, 4-Fluoro-8-(4-fluorophenyl)-9-[6-(methyl{3-[(3,3,3-trifluoropropyl)sulphonyl]propyl}amino)hexyl]-6,7-dihydro-5H-benzo[7]annulen-3-ol] stands 7.28. Under `CN(CCCCCCC1=C(c2ccc(F)cc2)CCCc2c1ccc(O)c2F)CCCS(=O)(=O)CCCC(F)(F)F` [Example 38, 4-Fluoro-8-(4-fluorophenyl)-9-[6-(methyl{3-[(4,4,4-trifluorobutyl)sulphonyl]propyl}amino)hexyl]-6,7-dihydro-5H-benzo[7]annulen-3-ol] stands 7.57. Under `CN(CCCCCCC1=C(c2ccc(F)cc2)CCCc2c1ccc(O)c2F)CCCCS(=O)(=O)CCCC(F)(F)C(F)(F)F` [Example 39, 4-Fluoro-8-(4-fluorophenyl)-9-[6-(methyl{4-[(4,4,5,5,5-pentafluoropentyl)sulphonyl]butyl}amino)hexyl]-6,7-dihydro-5H-benzo[7]annulen-3-ol] stands 8.10; under `COCCN(CCCCCCC1=C(c2ccc(F)cc2)CCCc2c1ccc(O)c2F)CCCS(=O)(=O)CCCC(F)(F)C(F)(F)F` [Example 40, 4-Fluoro-8-(4-fluorophenyl)-9-{6-[(2-methoxyethyl){3-[(4,4,5,5,5-pentafluoropentyl)sulphonyl]propyl}amino]hexyl}-6,7-dihydro-5H-benzo[7]annulen-3-ol], 6.77; under `COCCCN(CCCCCCC1=C(c2ccc(F)cc2)CCCc2c1ccc(O)c2F)CCCS(=O)(=O)CCCC(F)(F)C(F)(F)F` [Example 41, 4-Fluoro-8-(4-fluorophenyl)-9-{6-[(3-methoxypropyl){3-[(4,4,5,5,5-pentafluoropentyl)sulphonyl]propyl}amino]hexyl}-6,7-dihydro-5H-benzo[7]annulen-3-ol], 7.38. Take `CN(CCCCCCC1=C(c2ccc(F)cc2)CCCc2c1ccc(O)c2F)CCC[S+]([O-])CCCC(F)(F)C(F)(F)F` (stereo not shown) [Example 42, 4-Fluoro-8-(4-fluorophenyl)-9-[6-(methyl{3-[(4,4,5,5,5-pentafluoropentyl)sulphinyl]propyl}amino)hexyl]-6,7-dihydro-5H-benzo[7]annulen-3-ol]: the pIC50 is 7.89. Under `CN(CCCCCCC1=C(c2ccc(F)cc2)CCCc2c1ccc(O)c2F)CCCCS(=O)(=O)CCCC(F)(F)C(F)(F)F` [Example 43, 4-Fluoro-8-(4-fluorophenyl)-9-[6-(methyl{4-[(4,4,5,5,5-pentafluoropentyl)sulphonyl]butyl}amino)hexyl]-6,7-dihydro-5H-benzo[7]annulen-3-ol] stands 7.70; under `CN(CCCCCCC1=C(c2ccc(F)c(F)c2)CCCc2cc(O)ccc21)CCCCS(=O)(=O)CCC(F)(F)F` [Example 47, 8-(3,4-Difluorophenyl)-9-[6-(methyl{4-[(3,3,3-trifluoropropyl)sulphonyl]butyl}amino)hexyl]-6,7-dihydro-5H-benzo[7]annulen-3-ol], 7.59; under `CN(CCCCCC1=C(c2ccc(F)cc2)CCCc2cc(O)ccc21)CCCCS(=O)(=O)CCCC(F)(F)F` [Example 49, 8-(4-Fluorophenyl)-9-[5-(methyl{4-[(4,4,4-trifluorobutyl)sulphonyl]butyl}amino)pentyl]-6,7-dihydro-5H-benzo[7]annulen-3-ol], 6.74.

These data come from patent publication US20130252890A1, “6,7-DIHYDRO-5H-BENZO[7]ANNULENE DERIVATIVES, PROCESS FOR PREPARATION THEREOF, PHARMACEUTICAL PREPARATIONS COMPRISING THEM, AND THE USE THEREOF FOR PRODUCTION OF MEDICAMENTS” (BAYER INTELLECTUAL PROPERTY GMBH, priority 2010, published 2013).
